From ChEMBL document CHEMBL1201862, “PubChem BioAssay data set” (2004)
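These data come from cells grown in 96-well plates and exposed to compound for 48 hours at five concentrations. GI50 is the concentration that inhibits growth by half.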 The source made the active and inactive calls. Cut-off read from the data, not from the text of the source: active = GI50 up to about 1.1 µM and inactive = higher.

What was measured:
Assay in all cases: NCI-60 cell line screen, 48 h
CCRF-CEM = tested on: CCRF-CEM
OVCAR-3 = tested on: OVCAR-3
KM12 = tested on: KM12
TK-10 = tested on: TK-10
LOX IMVI = tested on: LOX IMVI
SR = tested on: SR
SK-MEL-5 = tested on: SK-MEL-5
ACHN = tested on: ACHN
K562 = tested on: K562
MDA-N = tested on: MDA-N
EKVX = tested on: EKVX
DU-145 = tested on: DU-145
SK-OV-3 = tested on: SK-OV-3
HT-29 = tested on: HT-29
HCT-15 = tested on: HCT-15
OVCAR-4 = tested on: OVCAR-4
OVCAR-8 = tested on: OVCAR-8
SF-295 = tested on: SF-295
HL-60 = tested on: HL-60
MOLT-4 = tested on: MOLT-4

SMILES | GI50 (CCRF-CEM) | GI50 (OVCAR-3) | GI50 (KM12) | GI50 (TK-10) | GI50 (LOX IMVI) | GI50 (SR) | GI50 (SK-MEL-5) | GI50 (ACHN) | GI50 (K562) | GI50 (MDA-N) | GI50 (EKVX) | GI50 (DU-145) | GI50 (SK-OV-3) | GI50 (HT-29) | GI50 (HCT-15) [µM] | GI50 (OVCAR-4) | GI50 (OVCAR-8) | GI50 (SF-295) | GI50 (HL-60) | GI50 (MOLT-4)
Nc1nc(SCc2ccccc2Cl)cc(C(=O)O)n1 | 32.2 µM (inactive) | 28.6 µM (inactive) | 55.5 µM (inactive) | > 100 µM (inactive) | 44.4 µM (inactive) | 39 µM (inactive) | 76.9 µM (inactive) | 91.4 µM (inactive) | 46.5 µM (inactive) | 96.4 µM (inactive) | 54.1 µM (inactive) | > 100 µM (inactive) | > 100 µM (inactive) | > 100 µM (inactive) | 41.9 | 60 µM (inactive) | 46.9 µM (inactive) | 58.2 µM (inactive) | 64.1 µM (inactive) | –
CCN1C/C(=C\c2cc(OC)c(OC)c(OC)c2)C2=NN(c3ccccc3)C(c3cc(OC)c(OC)c(OC)c3)C2C1 (stereo unspecified) | 1.81 µM (inactive) | 3.63 µM (inactive) | 4.34 µM (inactive) | 1.65 µM (inactive) | 2.08 µM (inactive) | 2.03 µM (inactive) | 3.74 µM (inactive) | 9.33 µM (inactive) | 1.65 µM (inactive) | 2.41 µM (inactive) | 2.09 µM (inactive) | 2.99 µM (inactive) | 1.74 µM (inactive) | 2.07 µM (inactive) | 5.58 | 1.91 µM (inactive) | 1.61 µM (inactive) | 2.54 µM (inactive) | 3.03 µM (inactive) | 5.05 µM (inactive)
Cc1cc(NS(=O)(=O)c2ccc(NC(NC(=O)OC(C)C)(C(F)(F)F)C(F)(F)F)cc2)nc(C)n1 | > 100 µM (inactive) | > 100 µM (inactive) | > 100 µM (inactive) | > 100 µM (inactive) | > 100 µM (inactive) | > 100 µM (inactive) | > 100 µM (inactive) | > 100 µM (inactive) | > 100 µM (inactive) | > 100 µM (inactive) | > 100 µM (inactive) | > 100 µM (inactive) | > 100 µM (inactive) | > 100 µM (inactive) | > 100 | > 100 µM (inactive) | > 100 µM (inactive) | > 100 µM (inactive) | > 100 µM (inactive) | > 100 µM (inactive)
CCCCn1c2c(c3ccccc3c1=O)C(=O)c1ccccc1-2 | > 100 µM (inactive) | > 100 µM (inactive) | > 100 µM (inactive) | 62.4 µM (inactive) | > 100 µM (inactive) | 1.82 µM (inactive) | 5.98 µM (inactive) | – | > 100 µM (inactive) | > 100 µM (inactive) | > 100 µM (inactive) | 34.5 µM (inactive) | > 100 µM (inactive) | 13.3 µM (inactive) | > 100 | 1.82 µM (inactive) | > 100 µM (inactive) | 37.8 µM (inactive) | 4.28 µM (inactive) | –
CS(=O)(=O)c1nc(-c2cc3c(c(S(C)(=O)=O)n2)CCCC3)cc2c1CCCC2 | > 100 µM (inactive) | > 100 µM (inactive) | > 100 µM (inactive) | > 64.6 µM (inactive) | > 62.4 µM (inactive) | > 100 µM (inactive) | > 100 µM (inactive) | > 100 µM (inactive) | > 100 µM (inactive) | > 100 µM (inactive) | > 70.1 µM (inactive) | > 100 µM (inactive) | > 35.1 µM (inactive) | > 100 µM (inactive) | > 100 | > 100 µM (inactive) | > 35.4 µM (inactive) | 33.6 µM (inactive) | > 100 µM (inactive) | > 100 µM (inactive)
N=C(N)NS(=O)(=O)c1ccc(NNC(=O)c2cccc3c(O)c4ccccc4nc23)cc1 | 34.4 µM (inactive) | 24.1 µM (inactive) | 21.8 µM (inactive) | 44.8 µM (inactive) | 24.5 µM (inactive) | 35.6 µM (inactive) | 17.1 µM (inactive) | 21.1 µM (inactive) | 24 µM (inactive) | 25.2 µM (inactive) | 23.4 µM (inactive) | 32.7 µM (inactive) | 29.6 µM (inactive) | 21.6 µM (inactive) | 23 | 29.5 µM (inactive) | 26.1 µM (inactive) | 35.7 µM (inactive) | 27 µM (inactive) | 30.2 µM (inactive)
COc1ccc(C(c2c[nH]c3ccc(Br)cc23)c2c[nH]c3ccc(Br)cc23)cc1 | 0.138 µM (active) | 0.217 µM (active) | 0.197 µM (active) | 0.993 µM (active) | 0.137 µM (active) | 0.151 µM (active) | 0.359 µM (active) | 0.24 µM (active) | 0.167 µM (active) | 0.208 µM (active) | 0.38 µM (active) | 0.364 µM (active) | 1.24 µM (inactive) | 0.294 µM (active) | 0.214 | 0.267 µM (active) | 0.22 µM (active) | 0.313 µM (active) | 0.0828 µM (active) | 0.142 µM (active)
O=C(CC(Cc1ccccc1)c1ccc(Oc2ccccc2)cc1)Nc1cccc(Cl)c1 (stereo unspecified) | 3.49 µM (inactive) | 3.86 µM (inactive) | 3.29 µM (inactive) | 10 µM (inactive) | 3.73 µM (inactive) | 4.94 µM (inactive) | 11.3 µM (inactive) | 3.65 µM (inactive) | 3.34 µM (inactive) | 4.47 µM (inactive) | 4.4 µM (inactive) | 5.43 µM (inactive) | 5.46 µM (inactive) | 5.79 µM (inactive) | 3.64 | 6.03 µM (inactive) | 3.96 µM (inactive) | 3.24 µM (inactive) | 3.02 µM (inactive) | 3.69 µM (inactive)
COC(=O)[C@@H]1C[C@H]2OC(=O)CC[C@]2(C)O[C@H]1[C@H]1O[C@@](C)(O)CCC[C@H]1C | 14.5 µM (inactive) | > 50 µM (inactive) | > 50 µM (inactive) | > 50 µM (inactive) | 6.07 µM (inactive) | > 50 µM (inactive) | > 50 µM (inactive) | > 50 µM (inactive) | > 50 µM (inactive) | > 50 µM (inactive) | > 50 µM (inactive) | > 50 µM (inactive) | > 50 µM (inactive) | > 50 µM (inactive) | > 50 | > 50 µM (inactive) | > 50 µM (inactive) | > 50 µM (inactive) | 8.95 µM (inactive) | > 50 µM (inactive)
COc1ccc(Oc2nc3cc(C(F)(F)F)ccc3nc2C(C)C)cc1 | 39.6 µM (inactive) | 29.6 µM (inactive) | 31.6 µM (inactive) | 81.7 µM (inactive) | 15.3 µM (inactive) | 16.7 µM (inactive) | 22.2 µM (inactive) | 26.2 µM (inactive) | 24.6 µM (inactive) | 35.4 µM (inactive) | 19.2 µM (inactive) | 27.2 µM (inactive) | 38.7 µM (inactive) | 19 µM (inactive) | 23.8 | 34.7 µM (inactive) | 25.2 µM (inactive) | 21.2 µM (inactive) | 18.7 µM (inactive) | 15.7 µM (inactive)
COC(=O)C1OC(O[C@H]2CC[C@]3(C)[C@H]4CC=C5[C@@H]6CC(C)(C)CC[C@]6(C(=O)OC6OCC(O)C(O)C6OC6OC(C)C(OC7OCC(OC8OCC(O)C(O)C8O)C(O)C7O)C(O)C6O)[C@H](O)C[C@@]5(C)[C@]4(C)CC[C@H]3C2(C)C)C(O)C(O)C1O (stereo partly specified) | 17.3 µM (inactive) | 6.82 µM (inactive) | 3.72 µM (inactive) | 9.51 µM (inactive) | 8.53 µM (inactive) | 3.05 µM (inactive) | 3.4 µM (inactive) | 3.54 µM (inactive) | – | 1.78 µM (inactive) | 2.32 µM (inactive) | 2.13 µM (inactive) | 14.9 µM (inactive) | 2.71 µM (inactive) | 10.6 | 9.31 µM (inactive) | 5.27 µM (inactive) | 3.05 µM (inactive) | 3.21 µM (inactive) | 15.7 µM (inactive)
CC(C)(C)[Si](C)(C)OCC1CCC(n2cnc3c(=O)[nH]cnc32)O1 (stereo unspecified) | 68.5 µM (inactive) | > 100 µM (inactive) | > 100 µM (inactive) | > 100 µM (inactive) | > 100 µM (inactive) | 35.3 µM (inactive) | 32.5 µM (inactive) | > 100 µM (inactive) | 85.7 µM (inactive) | > 100 µM (inactive) | > 100 µM (inactive) | > 100 µM (inactive) | > 100 µM (inactive) | > 100 µM (inactive) | > 100 | > 100 µM (inactive) | 94.4 µM (inactive) | > 100 µM (inactive) | 74.8 µM (inactive) | 30.2 µM (inactive)
CCCCCCCCCCCCCC/C(C(=O)O)=C(\C)C(=O)O | > 100 µM (inactive) | > 100 µM (inactive) | > 100 µM (inactive) | > 100 µM (inactive) | > 100 µM (inactive) | 41.5 µM (inactive) | > 100 µM (inactive) | > 100 µM (inactive) | > 100 µM (inactive) | > 100 µM (inactive) | > 100 µM (inactive) | > 100 µM (inactive) | > 100 µM (inactive) | > 100 µM (inactive) | > 100 | > 100 µM (inactive) | > 100 µM (inactive) | > 100 µM (inactive) | 58.3 µM (inactive) | > 100 µM (inactive)
COc1cccc(-c2cc(=O)c3ccc(C)nc3[nH]2)c1 | 0.0459 µM (active) | 0.0219 µM (active) | 0.0366 µM (active) | > 100 µM (inactive) | 0.0596 µM (active) | 0.016 µM (active) | 0.036 µM (active) | 0.0538 µM (active) | 0.0232 µM (active) | 0.0115 µM (active) | 1.96 µM (inactive) | 0.0824 µM (active) | 0.051 µM (active) | 0.0331 µM (active) | 0.0402 | 3.78 µM (inactive) | 0.0847 µM (active) | 0.0371 µM (active) | 0.0212 µM (active) | 0.0741 µM (active)
